“Also recorded” adds a separate entry of the source. Like-named read-outs stand apart in the source and are kept apart here.
Target: T1, AnKir1 (Anopheles gambiae, UniProt A0A075M2J8)
T1 sequence (A0A075M2J8 1-555): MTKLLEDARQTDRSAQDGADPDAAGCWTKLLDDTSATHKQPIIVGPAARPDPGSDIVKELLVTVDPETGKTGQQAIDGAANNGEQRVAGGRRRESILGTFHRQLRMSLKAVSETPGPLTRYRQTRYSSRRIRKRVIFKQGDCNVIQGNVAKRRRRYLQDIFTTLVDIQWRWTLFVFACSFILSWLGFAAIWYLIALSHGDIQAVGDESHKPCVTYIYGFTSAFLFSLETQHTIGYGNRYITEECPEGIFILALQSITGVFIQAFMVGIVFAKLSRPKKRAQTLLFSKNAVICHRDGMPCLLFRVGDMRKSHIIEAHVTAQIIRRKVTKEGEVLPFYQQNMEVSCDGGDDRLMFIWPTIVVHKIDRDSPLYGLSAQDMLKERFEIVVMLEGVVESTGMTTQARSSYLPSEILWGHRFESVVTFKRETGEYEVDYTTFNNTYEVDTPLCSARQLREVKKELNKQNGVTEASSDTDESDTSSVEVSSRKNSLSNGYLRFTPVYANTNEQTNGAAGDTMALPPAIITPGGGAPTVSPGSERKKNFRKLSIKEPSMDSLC
Assay: Tl+ flux assay in T-REx-HEK293 cells expressing AnKir1
Format: cell-based
Procedure: Tl^+ flux assays were performed essentially as described previously. Briefly, stably transfected T-Rex-HEK-293 cells expressing AnKir1 channels were cultured overnight in 384-well plates (20,000 cells/20 μL/well black-walled, clear-bottomed BD PureCoat amine-coated plates (BD, Bedford, MA) with a plating media containing DMEM, 10% dialyzed FBS and 1 μg/mL tetracycline. Approximately twenty-four hours after cell plating, the cell culture medium was replaced with a dye-loading solution containing assay buffer (Hanks Balanced Salt Solution with 20 mM HEPES, pH 7.3), 0.01% (w/v) Pluronic F-127 (Life Technologies, Carlsbad, CA), and 1.2 μM of the thallium-sensitive dye Thallos-AM (TEFlabs, Austin, TX). Following 1 hr incubation at room temperature, the dye-loading solution was washed from the plates and replaced with 20 μL/well of assay buffer.
Tl+ flux assay development
Tl+ flux assays were performed essentiall y as described previousl y (1). Briefl y, stabl y transfect ed T-Rex -HEK- 293- AnKir1 cells were cultured overnight in 384-well plates in media containing DMEM, 10% dial yz ed FBS and 1μg/ m L tetrac ycline to induce channel expression
(Fig. S1A). The next day, the cell culture medium was replaced with a dye-loading solution containing assay buffer (Hanks Balanced Salt Solution with 20 mM HEPES, pH 7.3), 0.01% (w/v) Pluronic F-127 (Li fe Technologies, Carlsbad, CA), and 1.2 μM of the thallium-sensitive dye Thallos-AM (TEFl abs, Austin, TX). Following 1 hr incubation at room temperature, the d ye-loading solution was washed from the plates and replaced with 20 μ L/well of assa y buffer. The plates were transferred t o a Ham amatsu Functional Drug Screening System 6000 (FDSS6000; Hamamatsu, Tokyo, J apan) where 20 μ L/well of test compounds in assay buffer (as prepared below) were added and allowed to incubate with the cells for 20 min. After the incubation period, a baseline recordi ng was collected at 1 Hz for 10 s (excitation 470 ± 20 nm, emission 540 ± 30 nm) followed by a t hallium stimulus buffer addition (10 μL/well) and data collection for an additional 4 min. The Tl + stimulus buffer contains in (mM) 125 NaHCO3, 1.8 CaSO4, 1 MgSO4, 5 glucose, 12 Tl2SO4, 10 HEPES, pH 7.4. For Tl + flux assays on Kir2.x, Kir4.1 and Kir6.2/SUR1 ex pressing cells, the Tl+ stimulus buffer contained 1.8 mM Tl 2SO4. To ensure the small-molecule vehicle DMSO had no direct effect on An Ki r1-dependent Tl+ flux, the assa y’s tolerance to different doses of DMSO was evaluated (Fig. S1B). The robustness and reproducibility of the assay was determined by comparing Tl+ flux through tetracycline-induced and tetracycline-uninduced cells (Fig. S1C). The Z’ value was calculated as described previously (1 ), using the […]
Z’ = 1- (3SD p + 3SD n)/ |meanp + meann | where SD is standard deviation, p and n are control and uninduced flux values respectivel y.
To compare the effect of DMSO on An Kir1-mediated Tl+ flux, a one-way ANOVA was performed with a Tuke y’s multiple comparison test. Prism software (GraphPad Software) was used to generate CRC from Tl+ fl ux ..Half-inhibition concentration (IC50) values were calculated from fits using a four parameter logistic equation.
High-throughput screeni ng
The test compounds were transferred to daughter pol yprop ylene 384-well plates (G reiner Bio-One, Monroe, NC) using an Echo555 liquid handler (Labcyte, Sunnyvale, CA), and then diluted into assay buffer to generat e a 2X stock in 0.6% DMSO (0.3% final). For Tl+ flux assays on Kir6.2/SUR1 expressing cells, test compounds were diluted in assay buffer containing diazoxide (250 μM final) to induce channel activation. Concentration- response curves (CRCs) were gener ated b y screening compounds at 3-fold dilution series (1 nM - 30 μM).
Tl+ flux data were anal yzed as previousl y d escri bed (2, 3) using a combination of Excel (Microsoft Corp, Redmond, WA) with XLfit add-in (IDBS, Guildford, Surre y, UK), Ori ginPro […]

[1] = Tl+ flux assay, read-out: AnKir1 IC50 (Tl+ flux)
[2] = Tl+ flux, Tables S2/S3 and supplemental text, read-out: AnKir1 IC50

Row | Structure (SMILES) | IC50 [2] [µM] | other results
1 | O=C(Cn1nc(C(F)(F)F)c2c1CCCC2)N1CCCc2ccccc21 [VU041, 1-(3,4-dihydroquinolin-1(2H)-yl)-2-(3-(trifluoromethyl)-4,5,6,7-tetrahydro-1H-indazol-1-yl)ethan-1-one] | 2.3 | Hill-coefficient (Tl+ flux, AnKir1) (Tl+ flux CRC): 1.1; IC50 [1]: 2.5 µM
2 | O=C(Cn1nc(C(F)(F)F)c2c1CCCC2)NC1CCC1 [VU937] | – | AnKir1 IC50 (Tl+ flux, Tables S2/S3 and supplemental text, listed as 18): not tolerated; also recorded: inactive; inhibition at 30 µM (at 30 μM, read-out: inhibition of AnKir1-mediated Tl+ flux): < 50%
3 | O=C(Cn1nc(C(F)(F)F)c2c1CCCC2)N1CCCC2CCCCC21 (stereo not shown) [Compound 9] | 6.7 | –
4 | O=C(Cn1ncc2c1CCOC2)N1CCCc2ccccc21 [VU730] | – | IC50 [1]: 2.4 µM
5 | CC1CC(C)CN(C(=O)Cn2nc(C(F)(F)F)c3c2CCCC3)C1 (stereo not shown) [Compound 13] | 4.5 | –
6 | O=C(Cn1nc(C(F)(F)F)c2c1CCCC2)N1CCCC(c2ccccc2)C1 (stereo not shown) [Compound 12] | 5.6 | –
7 | O=C1CCCc2c1ccn2CC(=O)N1CCCc2ccccc21 [Compound 4] | 12.1 | –

— publication PMC5111108, “An insecticide resistance-breaking mosquitocide targeting inward rectifier potassium channels in vectors of Zika virus and malaria” (Scientific Reports, 2016)
